Legend:
human PPARγ = assay: Reporter gene bioassay of PPAR transcriptional activity (Gal4-hPPARγ / UAStkLuc luciferase in 293 cells); assay type: cell-based; details: each compound alone, 16 h, FIGS. 1A and B
Protocol: FIG. 1A, 1B illustrate a transcriptional activation of PPARγ by BNZ and PAA. Luciferase assay was performed in 293 cells transfected with Gal4-hPPARγ and UAStkLuc reporter construct and treated for 16 h with respective compounds. Data are expressed as fold change ±SEM compared to untreated cells set at 1.0.*, P<0.05; **, P<0.001.
FIG. 1C illustrates the additive effect of SB and PAA on transcriptional activity of PPARγ. Luciferase assay was performed in 293 cells transfected with Gal4-hPPARγ and UAStkLuc reporter construct and treated 10 mM of each compound for 16 h. Data are expressed as fold change ±SEM compared to untreated cells set at 1.0.*, P<0.001.
Human embryonic kidney 293 cells were seeded in DMEM supplemented with 5% charcoal dextran-treated FBS and transfected with Gal4 DBD fusion of PPAR isoforms and UAStkLuc reporter as described (12). Cells were then treated for 16 hrs and harvested for luciferase activity. Luciferase values were normalized for transfection efficiency to β-galactosidase activity and expressed as relative fold response compared to untreated cells. Data are derived from at least four independent experiments performed in triplicates. […]

CD4+ T cells = assay: Treatment of CD4+ T cells from healthy volunteers and Systemic Lupus Erythematosus patients; assay type: cell-based, human; details: preliminary data, FIG. 6; CD4+ T cells stimulated with α-CD3/CD28 beads
From the text: FIG. 6 illustrates BZN+PAA (HIP-002) treatment of T cells derived from healthy volunteer (HV) and Systemic Lupus Erythematous (SLE) patients.
Next, we examined if BZN+PAA can improve immune function of T lymphocytes in Systemic Lupus Erythematosus (SLE). […] Dilutions effects of the BZN+PAA drug (HIP-002) are shown. (FIG. 6A). CD4+ T cells were stimulated with α-CD3/CD28 beads for 4 (red) or 5 (black) days and cytotoxicity determined by Live/Dead staining. (FIG. 6B) CD4+ T cells were stimulated as in (FIG. 6A) for 5 days, and the surface expression of CD154 and CD25 measured by FACS analysis. (FIG. 6C) CD4+ T cells were stimulated as in (FIG. 6A), and proliferation measured by dilution of the CellTrace Violet dye. White bars: HV; n=2-3. Gray bars: SLE patients; n=3-4. * p<0.05, ** p<0.01, *** p<0.0001.

Structure (SMILES): O=C([O-])c1ccccc1.[Na+] [BNZ, benzoate]
- PPARγ activity (transcriptional activation, luciferase) (human PPARγ): significantly potent in increasing PPARγ activity
- effect on growth and survival of T lymphocytes (CD4+ T cells): beneficial effect on the growth and survival of these cells

Reference: patent publication US20190000790A1, “PPAR-GAMMA ACTIVATORS AND THEIR THE[…]” (THERIAC B[…]., priority 2015, published 2019)
